Earlier results on two compounds are cited in US20100190757A1, “COMBINATION PREPARATION FOR ORAL CONTREACEPTION AND ORAL THERAPY OF DYSFUNCTIONAL UTERINE BLEEDING CONTAINING ESTRADIOL VALERATE AND DIENOGEST AND METHOD OF USING SAME” (priority 2005, published 2010).

The test system of the data set is dysfunctional uterine bleeding. As to conditions: for duration of the bleeding period: 6 anovulatory women (14 days, 12th to 25th day of cycle) and ten ovulatory women (20 days, 5th to 25th day), three times daily, both groups; for reliable contraception: same regimen, anovulatory and ovulatory women.

For the compound `C#C[C@]1(O)CC[C@H]2[C@@H]3CCC4=CC(=O)CC[C@@H]4[C@H]3CC[C@@]21C` [norethisterone], the “duration of the bleeding period” value is recorded as “reduced” and the reliable contraception entry was “not attained”.

Regarding `CC(=O)O[C@]1(C(C)=O)CC[C@H]2[C@@H]3C[C@H](C)C4=CC(=O)CC[C@]4(C)[C@H]3CC[C@@]21C` [medroxyprogesterone acetate], the “duration of the bleeding period” value is given as “reduced” and the reliable contraception entry is recorded as “not attained”.
